From PubChem BioAssay (NCI) come the findings set out here.

Structures are written as SMILES.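 Protocol summary: plate cells (96-well), add compound at 5 concentrations, incubate 48 h, interpolate endpoints linearly. GI50 = concentration required for 50% inhibition of growth. TGI: concentration producing complete growth inhibition.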

Among the test systems are DMS 114 small cell lung; HT29 colon; LOX IMVI melanoma; SF-295 CNS; OVCAR-5 ovarian; MOLT-4 leukemia; DLD-1 colon; HCT-116 colon; BT-549 breast; NCI/ADR-RES ovarian.
What all share (assay): growth of human tumour cells (NCI), 48 h

For `CC1(c2cccc3ccccc23)OC(=O)c2ccccc21` (stereo unspecified), the TGI in the experiment with DMS 114 small cell lung was 38 µM; in the experiment with HT29 colon, 53.8 µM; in the experiment with LOX IMVI melanoma, 42.8 µM; in the experiment on SF-295 CNS, 54.5 µM; in the experiment on OVCAR-5 ovarian, over 100 µM; with MOLT-4 leukemia it was 55.6 µM. Besides, the TGI was found to be 75.2 µM with DLD-1 colon and 34.6 µM in the experiment with HCT-116 colon.
Turning to `COC(=O)C(=O)OC1(C(C)=O)CC2(c3ccccc3)OC1(c1ccccc1)c1ccccc12` (stereo unspecified), the TGI with DMS 114 small cell lung is 32 µM; in the experiment on HT29 colon, 30.7 µM; in the experiment on LOX IMVI melanoma it was 30.4 µM; with SF-295 CNS, 31.4 µM; in the experiment on OVCAR-5 ovarian it was 63 µM; with MOLT-4 leukemia, over 100 µM. Besides, the TGI in the experiment on DLD-1 colon was determined as 36.4 µM; with HCT-116 colon, 33.8 µM.
Turning to `Oc1ccccc1C=NCc1ccco1`, the TGI in the experiment with DMS 114 small cell lung, in the experiment on HT29 colon, with LOX IMVI melanoma, in the experiment on SF-295 CNS, in the experiment on OVCAR-5 ovarian and in the experiment with MOLT-4 leukemia was over 100 µM in each case. Moreover, the TGI in the experiment with DLD-1 colon and in the experiment on HCT-116 colon was over 100 µM in each case.
In the case of `O=C(CC1(O)C(=O)Nc2c(Cl)ccc(Cl)c21)c1ccc2ccccc2c1` (stereo unspecified), the TGI is 19.2 µM with DMS 114 small cell lung; 8.61 µM with HT29 colon; 31.9 µM in the experiment on LOX IMVI melanoma; 27.7 µM in the experiment with SF-295 CNS; 39.5 µM with OVCAR-5 ovarian; 38.9 µM with MOLT-4 leukemia. Also, the TGI in the experiment with DLD-1 colon stood at 59 µM; with HCT-116 colon, 28.3 µM.
As for `CCOc1ccccc1NC(=O)CC1SC(=Nc2ccc([N+](=O)[O-])cc2)NC1=O` (stereo unspecified), the TGI came to 32 µM with DMS 114 small cell lung; 50.6 µM in the experiment with HT29 colon; 47.1 µM in the experiment with LOX IMVI melanoma; 34.9 µM in the experiment with SF-295 CNS; 78.7 µM with OVCAR-5 ovarian; 60.3 µM in the experiment on MOLT-4 leukemia. Moreover, the values for the TGI with DLD-1 colon and with HCT-116 colon were 59 µM and 29.3 µM, respectively.
As to `BrC1=CC=C2NC=CC3=CC=NC1C32` (stereo unspecified), the TGI with DMS 114 small cell lung was 58.1 µM; in the experiment with HT29 colon, over 66.2 µM; in the experiment with LOX IMVI melanoma, 21.4 µM; with SF-295 CNS, over 100 µM; in the experiment on OVCAR-5 ovarian it was over 75.5 µM; with MOLT-4 leukemia, 15.6 µM. Moreover, the TGI with DLD-1 colon was over 65.2 µM; in the experiment with HCT-116 colon it was 21.1 µM.
As to `Clc1cc(Cc2cc(Cl)c(Cl)c3c2OCOC3)c2c(c1Cl)COCO2`, the TGI with DMS 114 small cell lung was over 100 µM; in the experiment on HT29 colon it was over 100 µM; with LOX IMVI melanoma, over 100 µM; with SF-295 CNS it was 78.8 µM; in the experiment on OVCAR-5 ovarian it was over 100 µM; in the experiment with MOLT-4 leukemia, over 100 µM. The TGI in the experiment with DLD-1 colon and with HCT-116 colon was over 100 µM throughout.
On to `N#CC(C(=O)/C(=N/N)C(C#N)c1ccccc1)c1ccccc1` (stereo unspecified), for which the TGI in the experiment with DMS 114 small cell lung, in the experiment on HT29 colon, in the experiment with LOX IMVI melanoma, in the experiment on SF-295 CNS, in the experiment on OVCAR-5 ovarian and in the experiment with MOLT-4 leukemia was over 100 µM throughout. The TGI in the experiment with DLD-1 colon and in the experiment on HCT-116 colon was over 100 µM throughout.
With `Oc1cc(O)c2c(-c3c(O)c(-c4ccc(O)c(O)c4)[o+]c4cc(O)cc(O)c34)c(O)c(-c3ccc(O)c(O)c3)[o+]c2c1`, the TGI in the experiment with DMS 114 small cell lung is 92.8 µM; in the experiment with HT29 colon, over 100 µM; in the experiment on LOX IMVI melanoma it was over 100 µM; in the experiment with SF-295 CNS it was over 100 µM; with OVCAR-5 ovarian, over 100 µM; in the experiment with MOLT-4 leukemia, over 100 µM. In addition, the TGI in the experiment on DLD-1 colon and in the experiment on HCT-116 colon was over 100 µM throughout.
In the case of `Nc1ncnc2c1nc(Cl)n2C1OC2COP(=O)(O)OC2C1O` (stereo unspecified), the TGI in the experiment with DMS 114 small cell lung is over 300 µM; with HT29 colon, over 300 µM; with LOX IMVI melanoma, over 300 µM; in the experiment on SF-295 CNS, over 300 µM; in the experiment with BT-549 breast, over 300 µM; with OVCAR-5 ovarian it was over 283 µM. In addition, the TGI in the experiment with DLD-1 colon is over 194 µM; in the experiment with NCI/ADR-RES ovarian, over 300 µM; with HCT-116 colon, over 300 µM.
On to `O=C(CO)CC(=O)C(=O)Nc1ccccc1`, for which the TGI in the experiment with DMS 114 small cell lung, in the experiment with HT29 colon, in the experiment with LOX IMVI melanoma, in the experiment with SF-295 CNS, in the experiment on OVCAR-5 ovarian and with MOLT-4 leukemia was over 100 µM throughout. Also, the TGI in the experiment on DLD-1 colon and in the experiment with HCT-116 colon was over 100 µM throughout.
Turning to `CCCCCC/C=C1\CCC(CN2CCCC2)C1=O` (stereo unspecified), the TGI in the experiment on DMS 114 small cell lung is 29.4 µM; in the experiment with HT29 colon, 34.2 µM; in the experiment with LOX IMVI melanoma, 22.4 µM; in the experiment on SF-295 CNS it was 34.1 µM; in the experiment with OVCAR-5 ovarian, 32.3 µM; in the experiment with MOLT-4 leukemia, over 87 µM. Moreover, the TGI came to 18 µM in the experiment with DLD-1 colon and 25 µM in the experiment on HCT-116 colon.
As for `CN(C)c1ccc([O][Bi]([Cl])[Cl])cc1`, the GI50 in the experiment on DMS 114 small cell lung is 87.9 µM; with HT29 colon, over 100 µM; in the experiment with LOX IMVI melanoma, over 100 µM; in the experiment with SF-295 CNS, over 100 µM; in the experiment on OVCAR-5 ovarian, over 100 µM; with MOLT-4 leukemia, over 100 µM. Besides, the GI50 in the experiment on DLD-1 colon and with HCT-116 colon was over 100 µM each time. Besides, the TGI with DMS 114 small cell lung, with HT29 colon, in the experiment on LOX IMVI melanoma, in the experiment with SF-295 CNS, in the experiment with OVCAR-5 ovarian and in the experiment on MOLT-4 leukemia was over 100 µM each time. For the same molecule, the TGI in the experiment on DLD-1 colon and in the experiment on HCT-116 colon was over 100 µM in each case.
Take `COC(=O)/C([Se]c1c(C)cc(C)cc1C)=C(\[Se]c1c(C)cc(C)cc1C)C(=O)OC`: the TGI with DMS 114 small cell lung, in the experiment with HT29 colon, in the experiment with LOX IMVI melanoma, in the experiment on SF-295 CNS, in the experiment with OVCAR-5 ovarian and with MOLT-4 leukemia was over 100 µM in each case. The TGI in the experiment with DLD-1 colon and with HCT-116 colon was over 100 µM throughout.
